In patent US11413321B2, “Pharmaceutical composition for use in increasing hair, modifying scalp or skin, healing a wound, promoting osteogenesis, or modifying hair” (priority 2017, dated 2022):

Experiments:
Type in all cases: in vivo, Wistar rat
[1] = tested on: full-thickness skin defect; test: Wound healing score, circular full-thickness skin defect on the dorsal part; conditions: 20 μL administration liquid containing 1 mg of the fatty acid at each of four locations; FIG. 6C
Method: Formation of wounds: hair on the dorsal part of a 12-week-old Wistar rat was shaven with hair clippers, and a circular full-thickness skin defect with a diameter of 8 mm was produced on each of the left and right sides of the head and the left and right sides of the tail. The full-thickness skin defect was formed at four locations per body.
Administration of milk: 20 μL of milk was subcutaneously injected at each of four locations, namely upper, lower, left and right, in a place 4 mm away from the peripheral edge of the wound. As the milk, the commercially available bovine milk sterilized by heating (at 130 degrees for 2 seconds and 65 degrees for 30 minutes) as described in Example 1 was used.
Administration of fatty acid: As a fatty acid contained in the milk, sterile purified water (administration liquid) containing palmitic acid, stearic acid, myristic acid, linolenic acid, α-linoleic acid and oleic acid, respectively was administered. Here, the water was heated and administered for the saturated fatty acids, and the water was administered at room temperature for the unsaturated fatty acids. 20 μL of the administration liquid (containing 1 mg of the fatty acid) was subcutaneously administered at each of four locations, namely upper, lower, left and right, in a place 4 mm away from the peripheral edge of the wound.
Score 4: The reduction ratio of the area of the wound site is 70% or more.
Score 3: The reduction ratio of the area of the wound site is 50% or more and less than 70%.
Score 2: The reduction ratio of the area of the wound site is 20% or more and less than 50%.
Score 1: The reduction ratio of the area of the wound site is less than 20%.
The result was given as a ratio obtained by dividing the above score by the score for physiological saline.
Two tubes of 8 mL of commercially available milk sterilized at a low temperature (65 degrees for 30 minutes) were centrifuged by a centrifugal separator (2600 g×6 minutes), 2 mL of one fourth of the supernatant exclusive of a whip portion was collected from each tube, the two collected liquids were combined to obtain 4 mL of a liquid, and 4 mL of the resulting liquid was stirred, and used for experiments (hereinafter, the obtained sample is referred to as a “centrifuged sample”). The obtained centrifuged sample was administered to the wound site at a dosage of 20 μL per location in the same manner as described above. The results are shown in “Centrifuged Sample” in FIG. 6A.
Next, a wound healing-promoting effect of lactoferrin was examined. As lactoferrin, Nice rim essence 62971 (trade name) purchased from Lion Corporation was used and administered at one location in an amount of 20 μg or 60 μg in the same manner as described above. Specifically, the lactoferrin was ground, and then thoroughly dissolved in purified water. The lactoferrin concentration was adjusted so that an injection amount of 20 μL included the above administration amount. The result was given as a value obtained by dividing each of scores after seven days and after ten days by the score for the physiological saline administration group.

CD68-positive cells = test: Immunohistological staining of rat dorsal skin after injection of fatty acids (CD68); conditions: 1 mg fatty acid in 20 μL per location
Method: (§1) Next, representative fatty acids contained in milk were administered to a 12-week-old Wistar rat at a plurality of locations on the dorsal skin as in Example 1(2) above, and a change in tissues by the administration was observed after the tissues were subjected to immunohistological staining. More specifically, physiological saline was administered in an amount of 20 μL per location, an administration liquid containing 1 mg of a fatty acid was administered in an amount of 20 μL per location, and a change in CD68-positive macrophage stained images and PPAR-γ-positive cell images by the administration was observed. Samples of the Wistar rat were obtained by sampling administration sites (four weeks after administration and eight weeks after administration). FIGS. 10A to 10G show the results. […] At saturated fatty acid injection sites, infiltration of a large number of CD68-positive cells was observed, and fibrillization of normal tissues was observed. Therefore, in FIGS. 10B to 10D, a change in fat tissues was examined at a location which was closest to the administration site and where normal tissues were maintained (non-fibrillization location).

PPAR-γ-positive cells = test: Immunohistological staining of rat dorsal skin after injection of fatty acids (PPAR-γ); conditions: 1 mg fatty acid in 20 μL per location
Method: as §1

Itga4 = test: Quantitative PCR of dorsal tissues after subcutaneous administration (Itga4); conditions: 20 μL per location into rat dorsal part; vs control without administration; FIG. 15
Method: 4.) Integrin subunit alpha 4 (Itga4), Rattus norvegicus: mRNA 3,736 bp NM 001107737.1 GI: 157819948 Next, a change in gene expression in tissues was examined. Three regions were set between the head and the tail of the dorsal part of a 12-week-old Wistar rat (male), and each region was divided between the left and the right of the backbone into two regions to set a total of six regions on the dorsal part. Milk or palmitic acid was injected in an amount of 20 μL per location at two locations in the vicinity of the center of each region. The distance between the two locations was 1 cm. The collected tissue fragments were frozen with liquid nitrogen, and stored at −80° C. […] Analysis of gene expression by quantitative PCR was performed in the following manner: Integrated DNA technologies, Inc (Skokie, Ill., USA) was requested to design and synthesize gene-specific primers and probes, and using PrimeTime Gene Expression Master Mix Reagent (Integrated DNA Technologies, Inc, Skokie, Ill., USA) and Rotor-Gene Q PCR Apparatus (QIAGEN GmbH, Hilden, Germany), PCR analysis was performed twice per gene per specimen to analyze the expression level of a target gene. […]

[2] = eight weeks after administration

In the case of `CCCCCCCCCCCCCCCC(=O)O` [palmitic acid], the “wound healing-promoting effect (score divided by the score for physiological saline)” value [1] is reported as “high promoting effect”, the “number of CD68-positive cells at the administration site” value (CD68-positive cells; [2]) is reported as “maintained” and the “number of CD68-positive cells at the administration site” value (CD68-positive cells; four weeks after administration, vs physiological saline) is reported as “increased”. For the same compound, the “increase in the number of PPAR-γ-positive cells at the administration site” value (PPAR-γ-positive cells; [2]) was “maintained”, the “number of PPAR-γ-positive cells at the administration site” value (PPAR-γ-positive cells; four weeks after administration, vs physiological saline, FIGS. 10B-10G) was “increased” and the “expression level of Itga4 in tissues” value (Itga4) was “greatly increased”.
